Experiment [1] concerns the target T1, human EP2 receptors (Homo sapiens, UniProt P43116).
T1 construct: expressed in transfected cells; host or cells: HEK 293
Nature of the experiment: Competition binding, [3H]PGE2, HEK 293 cells stably expressing human EP2 receptors. On the procedure:
Competition binding experiments were performed in a medium containing Hank's balanced salt solution, Hepes 20 mM, pH 7.3, membranes (∼60 µg protein) or 2x10^5 cells from HEK 293 cells stably expressing human EP2 receptors, [^3H]PGE2 (10 nM) and various concentrations of test compounds in a total volume of 300 µl. Reaction mixtures were incubated at 23 °C for 60 min, and were filtered over Whatman GF/B filters under vacuum. Filters were washed three times with 5 ml ice-cold buffer containing 50 mM Tris/HCl (pH 7.3). Non-specific binding was estimated in the presence of excess unlabeled PGE2 (10 µM). Binding data fitted to the binding model for a single class of binding sites, using nonlinear regression analysis.
(§1) HEK-293 cells stably expressing the human or feline FP receptor, or EP1, EP2, or EP4 receptors were washed with TME buffer, scraped from the bottom of the flasks, and homogenized for 30 sec using a Brinkman PT 10/35 polytron. TME buffer was added to achieve a final 40 ml volume in the centrifuge tubes (the composition of TME is 100 mM TRIS base, 20 mM MgCl2, […]; 10N HCl is added to achieve a pH of 7.4).
(§2) The cell homogenate was centrifuged at 19000 r.p.m. for 20 min at 4° C using a Beckman Ti-60 rotor. The resultant pellet was resuspended in TME buffer to give a final 1 mg/ml protein concentration, as determined by Biorad assay. Radioligand binding competition assays vs. [^3H-]17 -phenyl PGF2α (5 nM) were performed in a 100µl volume for 60 min. Binding reactions were started by adding plasma membrane fraction. The reaction was terminated by the addition of 4 ml ice-cold TRIS-HCl buffer and rapid filtration through glass fiber GF/B filters using a Brandel cell harvester. The filters were washed 3 times with ice-cold buffer and oven dried for one hour.
(§3) [^3H-] PGE2 (specific activity 180 Ci mmol) was used as the radioligand for EP receptors. [^3H] 17-phenyl PGF2α was employed for FP receptor binding studies. Binding studies employing EP1, EP2, EP4 and FP receptors were performed in duplicate in at least three separate experiments. A 200µl assay volume was used. Incubations were for 60 min at 25°C and were terminated by the addition of 4 ml of ice-cold 50 mM TRIS-HCl, followed by rapid filtration through Whatman GF/B filters and three additional 4 ml washes in a cell harvester (Brandel). Competition studies were performed using a final concentration of 5 nM [^3H]-PGE2, or 5 nM [^3H] 17-phenyl PGF2α and non-specific binding determined with 10^-5M of unlabeled PGE2, or 17-phenyl PGF2α, according to receptor subtype studied.

Experiment [2] concerns the target T2, EP4 receptors (Homo sapiens, UniProt P35408).
T2 construct: expressed in transfected cells; host or cells: HEK-293
Put plainly: Radioligand binding, EP4 receptor. The settings on record: Table 3; read-out: BINDING (Ki, nM) HEP4. On the procedure:
as §1, §2, §3

In experiment [3] the target is T3, hEP2/Gqs5 (Homo sapiens, UniProt P43116).
T3 construct: expressed in transfected cells; host or cells: HEK-293(EBNA)
Nature of the experiment: FLIPR calcium signal study, HEK-293(EBNA) cells. In kind it is cell-based. How it is done:
(§4) Cells were seeded at a density of 5x10^4 cells per well in Biocoat® Poly-D-lysine-coated black-wall, clear-bottom 96-well plates (Becton-Dickinson) and allowed to attach overnight in an incubator at 37 °C. Cells were then washed two times with HBSS-HEPES buffer (Hanks Balanced Salt Solution without bicarbonate and phenol red, 20 mM HEPES, pH 7.4) using a Denley Cellwash plate washer (Labsystems). After 45 minutes of dye-loading in the dark, using the calcium-sensitive dye Fluo-4 AM at a final concentration of 2 µM, plates were washed four times with HBSS-HEPES buffer to remove excess dye leaving 100 µl in each well. Plates were re-equilibrated to 37 °C for a few minutes.
Cells were excited with an Argon laser at 488 nm, and emission was measured through a 510-570 nm bandwidth emission filter (FLIPR™, Molecular Devices, Sunnyvale, CA). […] The peak increase in fluorescence intensity was recorded for each well. […] The peak fluorescence change in each drug-containing well was then expressed relative to the controls.
Compounds were tested in a high-throughput (HTS) or concentration-response (CoRe) format. In the HTS format, forty-four compounds per plate were examined in duplicates at a concentration of 10^-5 M. To generate concentration-response curves, four compounds per plate were tested in duplicates in a concentration range between 10^-5 and 10^-11 M. The duplicate values were averaged.

Experiment [4] has as its target T4, hEP3A/Gqi5 (Homo sapiens, UniProt P43115).
T4 construct: expressed in transfected cells; host or cells: HEK-293(EBNA)
T4 sequence (P43115 1-390): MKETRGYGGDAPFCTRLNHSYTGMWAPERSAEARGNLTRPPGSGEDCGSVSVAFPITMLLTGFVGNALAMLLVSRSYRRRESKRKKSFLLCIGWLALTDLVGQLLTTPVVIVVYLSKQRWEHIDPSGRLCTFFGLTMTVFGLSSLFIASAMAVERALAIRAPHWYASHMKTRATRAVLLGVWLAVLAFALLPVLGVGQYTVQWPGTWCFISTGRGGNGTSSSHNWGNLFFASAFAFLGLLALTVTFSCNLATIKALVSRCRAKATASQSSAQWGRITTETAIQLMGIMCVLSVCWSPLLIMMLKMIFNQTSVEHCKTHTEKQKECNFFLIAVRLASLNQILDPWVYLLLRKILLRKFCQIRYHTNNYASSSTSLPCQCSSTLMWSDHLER
Nature of the experiment: FLIPR calcium signal study, HEK-293(EBNA) cells. Type of experiment: cell-based. On the procedure: (§5) HEK-293(EBNA) cells, stably expressing one type or subtype of recombinant human prostaglandin receptors (prostaglandin receptors expressed: hDP/Gqs5; hEP1; hEP2/Gqs5; hEP3A/Gqi5; hEP4/Gqs5; hFP; hIP; hTP), were cultured in 100 mm culture dishes in high-glucose DMEM medium containing 10% fetal bovine serum, 2 mM I-glutamine, 250 µg/ml geneticin (G418) and 200 µg/ml hygromycin B as selection markers, and 100 units/ml penicillin G, 100 µg/ml streptomycin and 0.25 µg/ml amphotericin B.
as §4
(§6) Cells were excited with an Argon laser at 488 nm, and emission was measured through a 510-570 nm bandwidth emission filter (FLIPR™, Molecular Devices, Sunnyvale, CA). Drug solution was added in a 50 µl volume to each well to give the desired final concentration. The peak increase in fluorescence intensity was recorded for each well. On each plate, four wells each served as negative (HBSS-HEPES buffer) and positive controls (standard agonists: BW245C (hDP); PGE2 (hEP1; hEP2/Gqs5; hEP3A/Gqi5; hEP4/Gqs5); PGF2α (hFP); carbacyclin (hIP); U-46619 (hTP), depending on receptor). The peak fluorescence change in each drug-containing well was then expressed relative to the controls.
(§7) Compounds were tested in a high-throughput (HTS) or concentration-response (CoRe) format. In the HTS format, forty-four compounds per plate were examined in duplicates at a concentration of 10^-5 M. To generate concentration-response curves, four compounds per plate were tested in duplicates in a concentration range between 10^-5 and 10^-11 M. The duplicate values were averaged. In either, HTS or CoRe format each compound was tested on at least 3 separate plates using cells from different passages to give an n ≥ 3.

For experiment [5], the target named is T5, HEP3 (Homo sapiens, UniProt P43115).
T5 sequence (P43115 1-390): T4 sequence (P43115 1-390)
Put plainly: Radioligand binding, EP3 receptor. The following applies: Table 3; NA means not active.

Experiment [6] has as its target T6, hTP (Homo sapiens, UniProt P21731).
T6 construct: expressed in transfected cells; host or cells: HEK-293(EBNA)
T6 sequence (P21731 1-343): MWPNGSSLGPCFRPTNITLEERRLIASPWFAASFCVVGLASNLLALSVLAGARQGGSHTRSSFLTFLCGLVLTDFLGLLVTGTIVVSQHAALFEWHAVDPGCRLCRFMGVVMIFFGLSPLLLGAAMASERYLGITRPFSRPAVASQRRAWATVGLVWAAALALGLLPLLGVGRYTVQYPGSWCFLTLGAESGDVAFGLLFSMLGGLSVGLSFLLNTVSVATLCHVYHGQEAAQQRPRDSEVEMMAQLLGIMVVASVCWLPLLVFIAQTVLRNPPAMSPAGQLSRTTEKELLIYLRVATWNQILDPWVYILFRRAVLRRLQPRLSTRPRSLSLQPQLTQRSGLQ
Put plainly: FLIPR calcium signal study, HEK-293(EBNA) cells. In kind it is cell-based. The settings on record: Table 1; NA means not active; read-out: FUNCTIONAL (Ca2+, EC50, nM) HTP. On the procedure:
as §5, §4, §6, §7

In experiment [7] the target is T7, hDP/Gqs5 (Homo sapiens, UniProt Q13258).
T7 construct: expressed in transfected cells; host or cells: HEK-293(EBNA)
Put plainly: FLIPR calcium signal study, HEK-293(EBNA) cells. In kind it is cell-based. The settings on record: Table 1; NA means not active; read-out: FUNCTIONAL (Ca2+, EC50, nM) HDP. How it is done: as §5, §4, §6, §7

Experiment [8] addresses T8, hEP4/Gqs5 (Homo sapiens, UniProt P35408).
T8 construct: expressed in transfected cells; host or cells: HEK-293(EBNA)
Nature of the experiment: FLIPR calcium signal study, HEK-293(EBNA) cells. In kind it is cell-based. The settings on record: Table 1; NA means not active; read-out: FUNCTIONAL (Ca2+, EC50, nM) HEP 4. On the procedure: as §5, §4, §6, §7

For experiment [9], the target named is HEP 2 (Homo sapiens, UniProt P43116). Nature of the experiment: cAMP mediated assay. Type of experiment: cell-based. The following applies: Table 1; value in brackets, footnote (a).
[10] abbreviates: Table 3, read-out: BINDING (Ki, nM) HEP2.
[11] abbreviates: Table 3, read-out: FUNCTIONAL (Ca2+, EC50, nM) HEP2.
The mark [12] stands for this setting: Table 3, read-out: FUNCTIONAL (Ca2+, EC50, nM) HEP3A.
Where [13] appears, read: Table 1, Ca2+ signal, NA means not active, read-out: FUNCTIONAL (Ca2+, EC50, nM) HEP 2.
Setting [14] is: Table 1, NA means not active, read-out: FUNCTIONAL (Ca2+, EC50, nM) HEP 3A.

Where two headings read alike, the source gives them in different places.

T1 sequence (P43116 whole entry): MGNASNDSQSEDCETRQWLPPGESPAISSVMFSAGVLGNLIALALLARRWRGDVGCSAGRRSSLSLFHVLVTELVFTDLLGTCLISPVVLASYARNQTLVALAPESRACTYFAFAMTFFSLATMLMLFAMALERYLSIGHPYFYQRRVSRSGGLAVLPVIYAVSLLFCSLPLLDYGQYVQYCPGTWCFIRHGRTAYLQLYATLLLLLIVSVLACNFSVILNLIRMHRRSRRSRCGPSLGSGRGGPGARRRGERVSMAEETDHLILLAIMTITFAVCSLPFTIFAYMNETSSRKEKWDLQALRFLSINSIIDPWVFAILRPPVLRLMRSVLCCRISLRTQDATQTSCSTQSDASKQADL
T3 sequence (P43116 whole entry): as above
T2 sequence (P35408 whole entry): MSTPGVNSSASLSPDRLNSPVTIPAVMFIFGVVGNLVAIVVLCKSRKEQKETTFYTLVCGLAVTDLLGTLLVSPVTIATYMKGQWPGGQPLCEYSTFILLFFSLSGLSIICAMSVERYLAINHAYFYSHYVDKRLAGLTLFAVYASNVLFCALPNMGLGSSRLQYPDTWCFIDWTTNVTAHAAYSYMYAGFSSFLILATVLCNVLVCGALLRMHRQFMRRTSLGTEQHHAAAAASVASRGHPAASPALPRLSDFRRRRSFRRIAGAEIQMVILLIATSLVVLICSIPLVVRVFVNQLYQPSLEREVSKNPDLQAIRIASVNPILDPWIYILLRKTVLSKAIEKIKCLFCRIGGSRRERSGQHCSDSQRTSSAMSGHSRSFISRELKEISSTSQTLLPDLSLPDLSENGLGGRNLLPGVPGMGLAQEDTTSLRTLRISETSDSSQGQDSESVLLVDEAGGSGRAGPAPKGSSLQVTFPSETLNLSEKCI
HEP 2, sequence (P43116 whole entry): as the sequence (P43116 whole entry) above
T8 sequence (P35408 whole entry): as the sequence (P35408 whole entry) above
T7 sequence (Q13258 whole entry): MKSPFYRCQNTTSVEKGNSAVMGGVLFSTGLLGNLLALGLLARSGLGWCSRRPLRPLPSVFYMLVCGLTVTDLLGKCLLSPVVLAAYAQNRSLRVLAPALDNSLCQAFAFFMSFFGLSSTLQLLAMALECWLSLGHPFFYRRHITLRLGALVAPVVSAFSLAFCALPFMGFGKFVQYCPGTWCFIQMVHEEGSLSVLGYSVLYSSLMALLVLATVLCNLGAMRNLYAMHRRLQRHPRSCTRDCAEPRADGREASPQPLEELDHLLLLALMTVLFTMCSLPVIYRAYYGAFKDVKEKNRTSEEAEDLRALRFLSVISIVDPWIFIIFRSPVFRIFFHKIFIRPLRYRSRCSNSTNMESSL

With `CCCCCC(O)c1ccc([C@H]2CCC(=O)[C@@H]2CCCCCCC(=O)OC)cc1` (some centres unmarked), the Ki in experiment [1] (setting [10]) was 4680 nM; in experiment [2] it was 15000 nM. Moreover, the results for the concentration giving a half-maximal response (EC50) in [3] (setting [11]) and in experiment [4] (setting [12]) were 2160 nM and 3090 nM, respectively.
Regarding `CCCCCC(O)c1ccc([C@H]2CCC(=O)[C@@H]2CCCCCCC(=O)O)cc1` (some centres unmarked), the Ki in experiment [1] (setting [10]) came out at 871 nM; in experiment [5], 5200 nM; in experiment [2] it was 15000 nM. The EC50 in [3] (setting [11]) turned out to be 284 nM; in [4] (setting [12]) it was 90 nM.
As for `CCCC1(C(O)c2cccc([C@H]3CCC(=O)[C@@H]3C/C=C\CCCC(=O)OC)c2)CCC1` (some centres unmarked) [Entry 1], in experiment [6], the EC50 is more than 10000 nM.
As for `CCCC1(C(O)c2cccc([C@H]3CCC(=O)[C@@H]3CCCCCCC(=O)O)c2)CCC1` (some centres unmarked) [Entry 4], the EC50 in [3] (setting [13]) came to 3410 nM; in [4] (setting [14]) it was 3830 nM.
Regarding `CCCC1(C(O)c2ccc([C@H]3CCC(=O)[C@@H]3C/C=C\CCCC(=O)O)cc2)CCC1` (some centres unmarked) [Entry 6], the figures for the EC50 in experiment [3] (setting [13]) and in experiment [7] were 2870 nM and more than 10000 nM, respectively.
`CCCC1(C(O)c2ccc([C@H]3CCC(=O)[C@@H]3C/C=C\CCCC(=O)O)cc2)CCC1` (some centres unmarked) [Entry 9]: the EC50 in experiment [3] (setting [13]) and in experiment [8] was more than 10000 nM in each case.
`COC(=O)CCCCCC[C@H]1C(=O)CC[C@@H]1c1ccc(C(O)C2CCCCC2)cc1` (some centres unmarked) [Entry 12]: the EC50 in experiment [3] (setting [13]) and in experiment [6] was more than 10000 nM each time.
As to `O=C(O)CCCCCC[C@H]1[C@H](Cl)CC[C@@H]1c1ccc(C(O)C2CCCCC2)cc1` (some centres unmarked) [Entry 21], the EC50 in experiment [3] (setting [13]) and in [6] was more than 10000 nM in each case.
On to `CCCCCC(O)c1ccc([C@H]2CCC(=O)[C@@H]2CCCc2ccc(C(=O)O)s2)cc1` (some centres unmarked) [Entry 23], for which the Ki in [1] (Table 1, read-out: BINDING (Ki, nM) HEP 2) came to 54 nM. Also, the EC50 in [3] (setting [13]) was determined as 2 nM; in [4] (setting [14]) it was 55 nM; in [9] it was 0.003 µM.
For `CCCCCC(O)c1ccc([C@H]2CCC(=O)[C@@H]2C/C=C\CCCC(=O)OC)cc1` (some centres unmarked) [drawing 115], in [2], the Ki was 15000 nM. Also, the EC50 in [4] (setting [12]) was 15000 nM.
For `CCCCCC(O)c1ccc([C@H]2CCC(=O)[C@@H]2C/C=C\CCCC(=O)O)cc1` (some centres unmarked) [drawing 116], the Ki in [5] and in experiment [2] was 15000 nM throughout. For the same molecule, the concentration giving a half-maximal response (EC50) in [4] (setting [12]) was found to be 552 nM.

Usually Ki stands for the equilibrium dissociation constant of an inhibitor or competing ligand from its target. Usually EC50 stands for the concentration at which the effect is half-maximal.

(Values after patent publication EP2027081B1, “THERAPEUTIC PROSTAGLANDIN COMPOUNDS FOR THE TREATMENT OF GLAUCOMA” (ALLERGAN, INC., priority 2006, dated 2007).)
